Data taken from US11369565B2, “Amino-pyrimidine skeletal muscle modulators” (Cytokinetics, Inc., priority 2010, dated 2022).

System: rabbit skeletal myofibrils (approximately 90% fast fibers)
Experiment: Activation of fast skeletal myofibrils (PUMA coupled-enzyme ATPase assay at pCa25)
Assay type: biochemical
Conditions: concentration at which the compound increased the enzymatic activity by 40%; calcium at pCa25; PM12 buffer pH 6.8
Summary of the method: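 In pH 6.8 PM12 buffer (12 mM Pipes, 2 mM MgCl2, 1 mM DTT), ADP from myosin regenerated via pyruvate kinase/lactate dehydrogenase, with absorbance change at 340 nm from NADH oxidation as read-out. Calcium set at pCa25; Triton-washed rabbit skeletal myofibrils (about 90% fast fibres) used.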

Mean AC1.4 | Compound
D (D=>20 uM) | CC(C)(Nc1ncc(-c2cccc(C(N)=O)c2)cn1)c1ncccc1S(C)(=O)=O [3-[2-({1-methyl-1-[3-(methylsulfonyl)(2-pyridyl)]ethyl}amino)pyrimidin-5-yl]benzamide]
B (B=1-10 uM) | Cc1nc(NC[C@]2(c3ncccc3F)C[C@H](F)C2)ncc1-c1cccc(C(N)=O)c1 [3-[2-({[3-fluoro-1-(3-fluoro(2-pyridyl))cyclobutyl]methyl}amino)-4-methylpyrimidin-5-yl]benzamide]
D (D=>20 uM) | CC(C)(Nc1ncc(-c2ncno2)cn1)c1ncccc1Cl [[1-(3-chloro(2-pyridyl))-isopropyl](5-(1,2,4-oxadiazol-5-yl)pyrimidin-2-yl)amine]
B (B=1-10 uM) | CC(C)(CNc1ncc(-c2cncc(C(N)=O)c2)cn1)c1ccc(F)cc1 [5-(2-{[2-(4-fluorophenyl)-2-methylpropyl]amino}pyrimidin-5-yl)pyridine-3-carboxamide]
B (B=1-10 uM) | CC(C)(Nc1ncc(-c2ccnc(C(N)=O)c2)cn1)c1ncccc1Cl [4-(2-{[1-(3-chloro(2-pyridyl))-isopropyl]amino}pyrimidin-5-yl)pyridine-2-carboxamide]
D (D=>20 uM) | COc1cccnc1C(C)(C)Nc1ncc(-c2cc(C#N)ccc2F)cn1 [4-fluoro-3-(2-{[1-(3-methoxy(2-pyridyl))-isopropyl]amino}pyrimidin-5-yl)benzenecarbonitrile]
C (C=10-20 uM) | N#Cc1cnn(-c2cnc(NC[C@]3(c4ncccc4F)C[C@H](F)C3)nc2)c1 [1-[2-({[3-fluoro-1-(3-fluoro(2-pyridyl))cyclobutyl]methyl}amino)pyrimidin-5-yl]pyrazole-4-carbonitrile]
D (D=>20 uM) | CN(C(=O)c1ccnc(NCC2(c3ncccc3F)CCC2)n1)c1ccccc1 [[2-({[(3-fluoro(2-pyridyl))cyclobutyl]methyl}amino)pyrimidin-4-yl]-N-methyl-N-benzamide]
B (B=1-10 uM) | CC(=O)NCc1cnc(-c2cnc(NCC3(c4ncccc4F)CCC3)nc2)s1 [N-({2-[2-({[(3-fluoro-2-pyridyl)cyclobutyl]methyl}amino)pyrimidin-5-yl]-1,3-thiazol-5-yl}methyl)acetamide]
B (B=1-10 uM) | CC(C)(Nc1ncc(-c2cn[nH]c2)cn1)c1ncccc1Cl [[1-(3-chloro(2-pyridyl))-isopropyl](5-pyrazol-4-ylpyrimidin-2-yl)amine]
D (D=>20 uM) | CC(C)(Nc1ncc(-c2nnc(C(N)=O)s2)cn1)c1ncccc1Cl [5-(2-{[1-(3-chloro(2-pyridyl))-isopropyl]amino}pyrimidin-5-yl)-1,3,4-thiadiazole-2-carboxamide]
D (D=>20 uM) | CCNC(=O)c1cnc(NCC2(c3ncccc3F)CCC2)nc1 [N-ethyl[2-({[(3-fluoro(2-pyridyl))cyclobutyl]methyl}amino)pyrimidin-5-yl] carboxamide]
A (A=<1 uM) | N#Cc1ccc(F)c(-c2cnc(NCC3(c4ncccc4Cl)CCC3)nc2)c1 [3-[2-({[(3-chloro(2-pyridyl))cyclobutyl]methyl}amino)pyrimidin-5-yl]-4-fluorobenzenecarbonitrile]
D (D=>20 uM) | Fc1cccnc1C1(Nc2ncc(Br)cn2)CCC1 [(5-bromopyrimidin-2-yl)[(3-fluoro(2-pyridyl))cyclobutyl]amine]
B (B=1-10 uM) | CNC(=O)c1ccnc(-c2cnc(NC[C@]3(c4ncccc4F)C[C@H](F)C3)nc2)n1 [{2-[2-({[3-fluoro-1-(3-fluoro(2-pyridyl))cyclobutyl]methyl}amino)pyrimidin-5-yl]pyrimidin-4-yl}-N-methylcarboxamide]
D (D=>20 uM) | O=C(O)c1cnn(-c2cnc(NCC3(c4ncccc4F)CCC3)nc2)c1 [1-[2-({[(3-fluoro-2-pyridyl)cyclobutyl]methyl}amino)pyrimidin-5-yl]pyrazole-4-carboxylic acid]
A (A=<1 uM) | CN1CC(NC(=O)c2cccc(-c3cnc(NC[C@]4(c5ncccc5F)C[C@H](F)C4)nc3)c2)C1 [{3-[2-({[3-fluoro-1-(3-fluoro(2-pyridyl))cyclobutyl]methyl}amino)pyrimidin-5-yl]phenyl}-N-(1-methylazetidin-3-yl)carboxamide]
B (B=1-10 uM) | CNC(=O)c1cccc(-c2cnc(NCC3(c4ncccc4F)CCC3)nc2)c1 [{3-[2-({[(3-fluoro(2-pyridyl))cyclobutyl]methyl)amino)pyrimidin-5-yl]phenyl}-N-methylcarboxamide]

Further lines, the compound ahead of its results:

Compound | Mean AC1.4
CC(=O)NCCNC(=O)c1cnc(NCC2(c3ncccc3F)CCC2)nc1 [N-(2-{[2-({[(3-fluoro-2-pyridyl)cyclobutyl]methyl}amino)pyrimidin-5-yl]carbonylamino}ethyl)acetamide] | D (D=>20 uM)
CC(C)[C@@H](Nc1ncc(-c2ncc(C(N)=O)s2)cn1)c1ncccc1Cl [2-(2-{[(1R)-1-(3-chloro(2-pyridyl))-2-methylpropyl]amino}pyrimidin-5-yl)-1,3-thazole-5-carboxamide] | D (D=>20 uM)
Fc1cc2[nH]ncc2cc1-c1cnc(NC2(c3ncccc3F)CCC2)nc1 [[5-(6-fluoro(1H-indazol-5-yl))pyrimidin-2-yl][(3-fluoro(2-pyridyl))cyclobutyl]amine] | B (B=1-10 uM)
N#Cc1ccnc(-c2cnc(NC[C@]3(c4ncccc4F)C[C@H](F)C3)nc2)c1 [2-[2-({[3-fluoro-1-(3-fluoro(2-pyridyl))cyclobutyl]methyl)amino)pyrimidin-5-yl]pyridine-4-carbonitrile] | B (B=1-10 uM)
NC(=O)c1cccc(-c2cnc(N)nc2)c1 [3-(2-aminopyrimidin-5-yl)benzamide] | D (D=>20 uM)
O=C(Nc1cccnc1)c1cnc(NCC2(c3ncccc3F)CCC2)nc1 [[2-({[(3-fluoro(2-pyridyl))cyclobutyl]methyl}amino)pyrimidin-5-yl]-N-(3-pyridyl)carboxamide] | C (C=10-20 uM)
Oc1ncc(-c2cnc(N3CC4(c5ncccc5F)CC3C4)nc2)cn1 [5-{2-[4-(3-fluoro-2-pyridyl)-2-azabicyclo[2.1.1]hex-2-yl]pyrimidin-5-yl}pyrimidin-2-ol] | D (D=>20 uM)
O=C1Cc2cccc(-c3cnc(NC[C@]4(c5ncccc5F)C[C@H](F)C4)nc3)c2N1 [7-[2-({[3-fluoro-1-(3-fluoro(2-pyridyl))cyclobutyl)]methyl}amino) pyrimidin-5-yl]indolin-2-one] | B (B=1-10 uM)
CC(C)(Nc1ncc(-c2ncc(CNC(=O)C3(N)CC3)s2)cn1)c1ncccc1F [(aminocyclopropyl)-N-{[2-(2-{[1-(3-fluoro(2-pyridyl))-isopropyl]amino}pyrimidin-5-yl)(1,3-thiazol-5-yl)]methyl)carboxamide] | D (D=>20 uM)
COC(=O)Cc1ccc(F)c(-c2cnc(NC(C)(C)c3ncccc3F)nc2)c1 [methyl 2-[4-fluoro-3-(2-{[1-(3-fluoro(2-pyridyl))-isopropyl]amino}pyrimidin-5-yl)phenyl]acetate] | C (C=10-20 uM)
NC(=O)c1ccc(F)cc1-c1cnc(NC[C@]2(c3ncccc3F)C[C@H](F)C2)nc1 [4-fluoro-2-[2-({[3-fluoro-1-(3-fluoro(2-pyridyl))cyclobutyl]methyl}amino)pyrimidin-5-yl]benzamide] | B (B=1-10 uM)
CC(=O)NCc1cccc(-c2cnc(NC(C)(C)c3ncccc3F)nc2)c1 [N-{[3-(2-{[1-(3-fluoro(2-pyridyl))-isopropyl]amino}pyrimidin-5-yl)phenyl]methyl}acetamide] | C (C=10-20 uM)
NC(=O)c1cnc(NC2(c3ncccc3F)CCC2)nc1C(F)(F)F [2-{[(3-fluoro(2-pyridyl))cyclobutyl]amino)-4-(trifluoromethyl)pyrimidine-5-carboxamide] | D (D=>20 uM)
CC(C)(C)Nc1ncc(-c2ccc3[nH]nc(N)c3c2)cn1 [[5-(3-amino(1H-indazol-5-yl))pyrimidin-2-yl]tert-butyl)amine] | B (B=1-10 uM)
Cn1nccc1NC(=O)c1cnc(NCC2(c3ncccc3F)CCC2)nc1 [[2-({[(3-fluoro(2-pyridyl))cyclobutyl]methyl)amino)pyrimidin-5-yl]-N-(1-methylpyrazol-5-yl)carboxamide] | D (D=>20 uM)
N#Cc1n[nH]c2cc(F)c(-c3cnc(NC4(c5ncccc5F)CCC4)nc3)cc12 [6-fluoro-5-(2-{[(3-fluoro(2-pyridyl))cyclobutyl]amino}pyrimidin-5-yl)-1H-indazole-3-carbonitrile] | B (B=1-10 uM)
NC(=O)c1ccnc(NC2(c3ccc(F)cc3)CCC2)n1 [2-{[(4-fluorophenyl)cyclobutyl]amino} pyrimidine-4-carboxamide] | C (C=10-20 uM)
CNC(=O)c1ccc(F)c(-c2cnc(NC[C@]3(c4ncccc4F)C[C@H](F)C3)nc2)c1 [{4-fluoro-3-[2-({[3-fluoro-1-(3-fluoro(2-pyridyl))cyclobutyl]methyl}amino)pyrimidin-5-yl]phenyl}-N-methylcarboxamide] | A (A=<1 uM)
CC(C)(Nc1ncc(-c2ncc(CNC(=O)CN)s2)cn1)c1ncccc1F [2-amino-N-{[2-(2-{[1-(3-fluoro(2-pyridyl))-isopropyl]amino}pyrimidin-5-yl)(1,3-thiazol-5-yl)]methyl}acetamide] | D (D=>20 uM)
COc1cc(-c2cnc(NC[C@]3(c4ncccc4F)C[C@H](F)C3)nc2)nc(OC)n1 [[5-(2,6-dimethoxypyrimidin-4-yl)pyrimidin-2-yl]{[3-fluoro-1-(3-fluoro(2-pyridyl))cyclobutyl]methyl}amine] | D (D=>20 uM)
CC(C)(Nc1ncc(-c2cc(C#N)ccc2F)cn1)c1ncccc1C(F)F [3-[2-({1[3-(difluoromethyl)(2-pyridyl)]-isopropyl}amino)pyrimidin-5-yl]-4-fluorobenzenecarbonitrile] | B (B=1-10 uM)
CC(C)(Nc1ncc(-c2cccc(C(N)=O)c2)cn1)c1ccc(S(C)(=O)=O)cc1 [3-[2-({1-methyl-1-[4-(methylsulfonyl)phenyl]ethyl}amino)pyrimidin-5-yl)benzamide] | D (D=>20 uM)
